In PubChem BioAssay AID248 (DTP/NCI, 2004):
“And” between values parts separate entries of the source, which are not always exact repeats. Equal entries are not always repeated. Toxic doses and inconclusive results are not listed. Rule as the data show it: active = T/C of 150% or more; inactive = T/C below 125%.

Tested on: L1210 leukemia ip in BDF1 mice, survival T/C
Experiment: NCI In Vivo Anticancer Drug Screen. Data for tumor model L1210 Leukemia (intraperitoneal) in B6D2F1 (BDF1) mice
Conditions: endpoint: mean survival time, higher = longer survival
In short: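 Mice bearing the transplanted tumor received compound or vehicle. Survival of the treated group was divided by that of the vehicle-treated control group to give the ratio.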

[1] = dose: 100.0 mg/kg/injection, schedule: Q04DX003 (ip), vehicle: saline with Tween-80
[2] = dose: 200.0 mg/kg/injection, schedule: Q04DX003 (ip), vehicle: saline with Tween-80
[3] = dose: 100.0 mg/kg/injection, schedule: Q01DX009 (ip), vehicle: Klucel (hydroxypropylcellulose) (HPC)
[4] = dose: 200.0 mg/kg/injection, schedule: Q01DX009 (ip), vehicle: Klucel (hydroxypropylcellulose) (HPC)
[5] = dose: 400.0 mg/kg/injection, schedule: Q01DX009 (ip), vehicle: Klucel (hydroxypropylcellulose) (HPC)
[6] = dose: 100.0 mg/kg/injection, schedule: Q01DX001 (ip), vehicle: saline
[7] = dose: 200.0 mg/kg/injection, schedule: Q01DX001 (ip), vehicle: saline
[8] = dose: 400.0 mg/kg/injection, schedule: Q01DX001 (ip), vehicle: saline
[9] = dose: 100.0 mg/kg/injection, schedule: Q04DX003 (ip), vehicle: Klucel (hydroxypropylcellulose) (HPC)
[10] = dose: 200.0 mg/kg/injection, schedule: Q04DX003 (ip), vehicle: Klucel (hydroxypropylcellulose) (HPC)
[11] = dose: 400.0 mg/kg/injection, schedule: Q04DX003 (ip), vehicle: Klucel (hydroxypropylcellulose) (HPC)
[12] = dose: 100.0 mg/kg/injection, schedule: Q04DX002 (ip), vehicle: Klucel (hydroxypropylcellulose) (HPC)
[13] = dose: 200.0 mg/kg/injection, schedule: Q04DX002 (ip), vehicle: Klucel (hydroxypropylcellulose) (HPC)
[14] = dose: 100.0 mg/kg/injection, schedule: Q04DX003 (ip), vehicle: saline
[15] = dose: 200.0 mg/kg/injection, schedule: Q04DX003 (ip), vehicle: saline
[16] = dose: 400.0 mg/kg/injection, schedule: Q04DX003 (ip), vehicle: saline

Measured: T/C

c1ccc2c(c1)cc1ccc3cccc4ncc2c1c34
inactive: [1] 86 % of control | [2] 96 % of control | dose: 400.0 mg/kg/injection, schedule: Q04DX003 (ip), vehicle: saline with Tween-80 88 % of control

Cc1ccccc1SC(=O)Nc1cc(C(F)(F)F)ccc1Cl
inactive: [3] 100 % of control | [4] 98 % of control | [5] 100 % of control

COc1cc(C)c([N+](=O)[O-])cc1OC
inactive: [6] 106 % of control | [7] 97 % of control | [8] 101 % of control

C1CCc2nnnn2CC1
inactive: dose: 6.25 mg/kg/injection, schedule: Q01DX009 (ip), vehicle: saline 111 % of control | dose: 12.5 mg/kg/injection, schedule: Q01DX009 (ip), vehicle: saline 101 % of control and 97 % of control | dose: 12.5 mg/kg/injection, schedule: Q04DX003 (ip), vehicle: saline 103 % of control | dose: 25.0 mg/kg/injection, schedule: Q01DX009 (ip), vehicle: saline 109 % of control and 90 % of control | dose: 25.0 mg/kg/injection, schedule: Q04DX003 (ip), vehicle: saline 101 % of control | dose: 50.0 mg/kg/injection, schedule: Q01DX009 (ip), vehicle: saline 96 % of control | dose: 50.0 mg/kg/injection, schedule: Q04DX003 (ip), vehicle: saline 95 % of control and 106 % of control

O=c1cc(Sc2ccccc2)[nH]c(=O)[nH]1
inactive: [9] 96 % of control | [10] 105 % of control | [11] 102 % of control

Cc1cc(C)c(NC(=O)c2c(Br)c(Br)c(Br)c(Br)c2C(=O)O)c(C)c1
inactive: [12] 101 % of control | [13] 111 % of control | dose: 400.0 mg/kg/injection, schedule: Q04DX002 (ip), vehicle: Klucel (hydroxypropylcellulose) (HPC) 87 % of control

O=C(O)c1cc(I)c(I)c(I)c1
inactive: [1] 97 % of control | [2] 101 % of control

Cn1c(=O)c2c(ncn2CCO)n(C)c1=O
inactive: [6] 100 % of control | dose: 100.0 mg/kg/injection, schedule: Q01DX009 (ip), vehicle: saline 99 % of control | [14] 104 % of control | [7] 104 % of control | dose: 200.0 mg/kg/injection, schedule: Q01DX009 (ip), vehicle: saline 100 % of control | [15] 101 % of control | [8] 102 % of control | dose: 400.0 mg/kg/injection, schedule: Q01DX009 (ip), vehicle: saline 105 % of control | [16] 100 % of control

COc1cc2c(cc1C)OC(C)(CC(=O)O)C2 (centres undefined)
inactive: dose: 100.0 mg/kg/injection, schedule: Q01DX001 (ip), vehicle: Klucel (hydroxypropylcellulose) (HPC) 103 % of control | dose: 200.0 mg/kg/injection, schedule: Q01DX001 (ip), vehicle: Klucel (hydroxypropylcellulose) (HPC) 96 % of control | dose: 400.0 mg/kg/injection, schedule: Q01DX001 (ip), vehicle: Klucel (hydroxypropylcellulose) (HPC) 96 % of control

CS(=O)(=O)CCN1C(=O)C2C3CCC(O3)C2C1=O (centres undefined)
inactive: dose: 100.0 mg/kg/injection, schedule: Q04DX002 (ip), vehicle: saline with Tween-80 112 % of control | dose: 200.0 mg/kg/injection, schedule: Q04DX002 (ip), vehicle: saline with Tween-80 108 % of control | dose: 400.0 mg/kg/injection, schedule: Q04DX002 (ip), vehicle: saline with Tween-80 97 % of control

NNC(=O)CNc1ccc(F)cc1
inactive: [12] 105 % of control | [13] 114 % of control

Cc1cccc(NC(=O)c2ccccc2C(=O)O)c1C
inactive: [3] 98 % of control | [9] 98 % of control | [4] 93 % of control | [10] 95 % of control | [5] 96 % of control | [11] 93 % of control

Nc1[nH]c(=S)[nH]c(=O)c1NC=O
inactive: dose: 16.0 mg/kg/injection, schedule: Q01DX Z (ip), vehicle: methylcellulose (MC) 103 % of control | dose: 31.0 mg/kg/injection, schedule: Q01DX Z (ip), vehicle: methylcellulose (MC) 106 % of control | dose: 62.0 mg/kg/injection, schedule: Q01DX Z (ip), vehicle: methylcellulose (MC) 108 % of control | dose: 125.0 mg/kg/injection, schedule: Q01DX Z (ip), vehicle: methylcellulose (MC) 96 % of control and 97 % of control | dose: 250.0 mg/kg/injection, schedule: Q01DX Z (ip), vehicle: methylcellulose (MC) 100 % of control | dose: 500.0 mg/kg/injection, schedule: Q01DX Z (ip), vehicle: methylcellulose (MC) 112 % of control

COCCN1CCC(C)(CO)C1 (centres undefined)
inactive: [14] 87 % of control | [15] 93 % of control | [16] 92 % of control

COc1ccc(C)cc1NC(=O)OCCSc1ccc(Cl)cc1
inactive: dose: 50.0 mg/kg/injection, schedule: Q01DX009 (ip), vehicle: gum acacia 97 % of control and 102 % of control | dose: 100.0 mg/kg/injection, schedule: Q01DX001 (ip), vehicle: gum acacia 95 % of control and 97 % of control | dose: 100.0 mg/kg/injection, schedule: Q04DX002 (ip), vehicle: gum acacia 97 % of control and 91 % of control | dose: 100.0 mg/kg/injection, schedule: Q04DX003 (ip), vehicle: gum acacia 96 % of control and 97 % of control | dose: 200.0 mg/kg/injection, schedule: Q01DX001 (ip), vehicle: gum acacia 95 % of control and 100 % of control | dose: 200.0 mg/kg/injection, schedule: Q04DX002 (ip), vehicle: gum acacia 93 % of control | dose: 200.0 mg/kg/injection, schedule: Q04DX003 (ip), vehicle: gum acacia 92 % of control and 96 % of control | dose: 400.0 mg/kg/injection, schedule: Q01DX001 (ip), vehicle: gum acacia 94 % of control and 97 % of control | dose: 400.0 mg/kg/injection, schedule: Q01DX009 (ip), vehicle: gum acacia 88 % of control and 90 % of control | dose: 400.0 mg/kg/injection, schedule: Q04DX002 (ip), vehicle: gum acacia 98 % of control and 90 % of control | dose: 400.0 mg/kg/injection, schedule: Q04DX003 (ip), vehicle: gum acacia 100 % of control and 101 % of control

COc1ccc(/C=C/C(=O)c2ccc(OC)c(OC)c2)cc1OC
inactive: dose: 100.0 mg/kg/injection, schedule: Q01DX009 (ip), vehicle: saline with Tween-80 100 % of control | dose: 200.0 mg/kg/injection, schedule: Q01DX009 (ip), vehicle: saline with Tween-80 105 % of control | dose: 400.0 mg/kg/injection, schedule: Q01DX009 (ip), vehicle: saline with Tween-80 102 % of control

COC1OC2COC(C)(C)OC2C1OS(=O)(=O)c1ccc(C)cc1 (centres undefined)
inactive: dose: 100.0 mg/kg/injection, schedule: Q01DX001 (ip), vehicle: carboxymethylcellulose (CMC) 104 % of control | dose: 200.0 mg/kg/injection, schedule: Q01DX001 (ip), vehicle: carboxymethylcellulose (CMC) 96 % of control | dose: 400.0 mg/kg/injection, schedule: Q01DX001 (ip), vehicle: carboxymethylcellulose (CMC) 107 % of control

S=C1CCNCC1
inactive: [14] 88 % of control
